By IC50 is commonly meant the concentration at which inhibition is half-maximal.

The structures appear in SMILES notation. Bounds are passed on as bounds.

Among the data in patent publication US9452986B2, “6-heteroaryloxy- or 6-aryloxy-quinoline-2-carboxamides and method of use” (AbbVie Inc., priority 2014, dated 2016) are IC50 values, retold here.

Chain of recombinant human Nav1.7 (Q15858 whole entry): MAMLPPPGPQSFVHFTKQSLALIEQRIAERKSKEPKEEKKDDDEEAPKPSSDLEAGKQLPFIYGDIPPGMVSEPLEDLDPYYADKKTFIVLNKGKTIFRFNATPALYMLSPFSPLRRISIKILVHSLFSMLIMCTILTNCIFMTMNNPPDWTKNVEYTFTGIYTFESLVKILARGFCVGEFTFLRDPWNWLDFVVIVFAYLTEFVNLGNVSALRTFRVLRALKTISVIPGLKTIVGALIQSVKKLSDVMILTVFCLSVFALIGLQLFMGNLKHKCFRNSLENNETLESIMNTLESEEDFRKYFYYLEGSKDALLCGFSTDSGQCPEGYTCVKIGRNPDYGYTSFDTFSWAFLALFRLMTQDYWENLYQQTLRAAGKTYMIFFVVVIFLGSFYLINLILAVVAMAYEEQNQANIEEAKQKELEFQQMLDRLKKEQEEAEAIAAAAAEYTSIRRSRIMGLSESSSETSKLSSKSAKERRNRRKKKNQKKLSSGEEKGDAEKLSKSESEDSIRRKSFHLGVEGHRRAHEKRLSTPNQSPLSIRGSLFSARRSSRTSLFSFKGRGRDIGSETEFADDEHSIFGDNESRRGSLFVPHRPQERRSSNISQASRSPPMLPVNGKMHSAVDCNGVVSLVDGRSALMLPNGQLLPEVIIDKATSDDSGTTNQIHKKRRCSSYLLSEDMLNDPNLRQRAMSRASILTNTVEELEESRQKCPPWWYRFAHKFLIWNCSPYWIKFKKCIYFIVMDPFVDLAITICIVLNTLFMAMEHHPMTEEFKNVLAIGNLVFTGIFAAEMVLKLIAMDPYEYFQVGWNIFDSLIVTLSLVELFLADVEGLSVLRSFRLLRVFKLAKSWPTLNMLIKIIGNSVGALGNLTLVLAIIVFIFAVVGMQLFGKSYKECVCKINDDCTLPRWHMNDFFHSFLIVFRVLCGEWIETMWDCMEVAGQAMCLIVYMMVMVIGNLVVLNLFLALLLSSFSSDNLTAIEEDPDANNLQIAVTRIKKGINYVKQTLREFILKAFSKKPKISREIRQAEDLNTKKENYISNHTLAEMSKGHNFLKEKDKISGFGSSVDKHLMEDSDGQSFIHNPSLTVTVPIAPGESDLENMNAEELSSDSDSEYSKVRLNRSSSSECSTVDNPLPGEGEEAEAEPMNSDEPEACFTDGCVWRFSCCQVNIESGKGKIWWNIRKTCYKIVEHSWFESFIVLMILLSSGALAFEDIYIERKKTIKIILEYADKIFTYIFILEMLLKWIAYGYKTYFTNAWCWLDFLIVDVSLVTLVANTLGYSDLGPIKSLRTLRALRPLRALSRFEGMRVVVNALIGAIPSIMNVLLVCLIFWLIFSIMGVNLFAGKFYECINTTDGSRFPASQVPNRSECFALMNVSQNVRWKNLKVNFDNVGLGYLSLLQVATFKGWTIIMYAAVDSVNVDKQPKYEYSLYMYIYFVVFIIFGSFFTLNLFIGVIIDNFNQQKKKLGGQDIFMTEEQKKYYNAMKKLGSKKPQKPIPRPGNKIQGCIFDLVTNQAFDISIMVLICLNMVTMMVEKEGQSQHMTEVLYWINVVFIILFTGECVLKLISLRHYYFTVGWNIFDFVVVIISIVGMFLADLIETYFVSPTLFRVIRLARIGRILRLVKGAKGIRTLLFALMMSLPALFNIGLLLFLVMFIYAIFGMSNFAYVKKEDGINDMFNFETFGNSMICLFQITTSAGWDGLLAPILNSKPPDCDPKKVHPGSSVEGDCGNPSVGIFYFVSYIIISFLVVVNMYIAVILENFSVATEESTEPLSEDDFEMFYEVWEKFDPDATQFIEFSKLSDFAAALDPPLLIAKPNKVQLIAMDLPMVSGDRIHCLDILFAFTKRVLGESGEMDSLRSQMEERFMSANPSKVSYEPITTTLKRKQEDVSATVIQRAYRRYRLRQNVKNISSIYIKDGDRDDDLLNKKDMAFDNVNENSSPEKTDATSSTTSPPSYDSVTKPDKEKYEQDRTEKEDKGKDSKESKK

One experiment addresses recombinant human Nav1.7 (Homo sapiens (Human), UniProt Q15858). Briefly: FRET-based membrane potential assay, recombinant human sodium channel Nav1.7. The settings on record: FRET-Membrane Potential Nav1.7 IC50. The format is cell-based. Put shortly: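 Channel activation used veratridine at its EC80, set by a dilution curve each experiment, together with Leiurus scorpion venom, added 3 min after compound. Membrane-potential ratio signals from FLIPR Tetra in HEPES-buffered HBSS were fitted to a four-parameter Hill equation for percent inhibition and IC50.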
On to `O=C(c1ccc2cc(Oc3ccc(C(F)(F)F)nc3)ccc2n1)N1C[C@@H](O)[C@@H](O)C1` [Example 546, [cis-3,4-dihydroxypyrrolidin-1-yl](6-{[6-(trifluoromethyl)pyridin-3-yl]oxy}quinolin-2-yl)methanone], for which the IC50 is 10.1 µM.

The same experiment, now with this note: HEK293 cells stably expressing recombinant human Nav1.7; veratridine + scorpion venom depolarization; read-out: FRET-Membrane Potential Nav1.7 IC50.
As for `O=C(NCCC(=O)N1CCCCC1)c1ccc2cc(Oc3ccc(C(F)(F)F)nc3)ccc2n1` [Example 520, N-[3-oxo-3-(piperidin-1-yl)propyl]-6-{[6-(trifluoromethyl)pyridin-3-yl]oxy}quinoline-2-carboxamide], the IC50 was 0.945 µM.
On the same count and under the same terms, under `CCN1CC(NC(=O)c2ccc3cc(Oc4ccc(C(F)(F)F)nc4)ccc3n2)CC1=O` (stereo not drawn) [Example 523, N-(1-ethyl-5-oxopyrrolidin-3-yl)-6-{[6-(trifluoromethyl)pyridin-3-yl]oxy}quinoline-2-carboxamide] stands 0.356 µM.
As to `CCN(CC)C(=O)CCNC(=O)c1ccc2cc(Oc3ccc(C(F)(F)F)nc3)ccc2n1` [Example 524, N-[3-(diethylamino)-3-oxopropyl]-6-{[6-(trifluoromethyl)pyridin-3-yl]oxy}quinoline-2-carboxamide], the IC50 is 1.08 µM.
In the case of `CC(C)NC(=O)CN(C)C(=O)c1ccc2cc(Oc3ccc(C(F)(F)F)nc3)ccc2n1` [Example 525, N-[2-(isopropylamino)-2-oxoethyl]-N-methyl-6-{[6-(trifluoromethyl)pyridin-3-yl]oxy}quinoline-2-carboxamide], the IC50 was found to be 6.65 µM.
`O=C(c1ccc2cc(Oc3ccc(C(F)(F)F)nc3)ccc2n1)N1CCC(N2CCOCC2)CC1` [Example 526, [4-(morpholin-4-yl)piperidin-1-yl](6-{[6-(trifluoromethyl)pyridin-3-yl]oxy}quinolin-2-yl)methanone]: the IC50 was found to be 3.09 µM.
The same measure, in the same setting: under `N[C@@H]1[C@H]2CN(C(=O)c3ccc4cc(Oc5ccc(C(F)(F)F)nc5)ccc4n3)C[C@@H]12` [Example 528, meso-[(1R,5S,6s)-6-amino-3-azabicyclo[3.1.0]hex-3-yl](6-{[6-(trifluoromethyl)pyridin-3-yl]oxy}quinolin-2-yl)methanone] stands 2.92 µM.
Regarding `O=C(N[C@@H]1CCOC1=O)c1ccc2cc(Oc3ccc(C(F)(F)F)cn3)ccc2n1` [Example 530, N-[(3R)-2-oxotetrahydrofuran-3-yl]-6-{[5-(trifluoromethyl)pyridin-2-yl]oxy}quinoline-2-carboxamide], the IC50 is 0.911 µM.
On the same count and under the same terms, under `Cc1nc(CN2CCN(C(=O)c3ccc4cc(Oc5ccc(C(F)(F)F)cn5)ccc4n3)CC2)co1` [Example 531, {4-[(2-methyl-1,3-oxazol-4-yl)methyl]piperazin-1-yl}(6-{[5-(trifluoromethyl)pyridin-2-yl]oxy}quinolin-2-yl)methanone] stands 3.57 µM; under `O=C(c1ccc2cc(Oc3ccc(C(F)(F)F)cn3)ccc2n1)N1CC2(CCOC2)C1` [Example 532, 6-oxa-2-azaspiro[3.4]oct-2-yl(6-{[5-(trifluoromethyl)pyridin-2-yl]oxy}quinolin-2-yl)methanone], 2.77 µM; under `O=C(c1ccc2cc(Oc3ccc(C(F)(F)F)cn3)ccc2n1)N1CC2(CCCOC2)C1` [Example 533, 6-oxa-2-azaspiro[3.5]non-2-yl(6-{[5-(trifluoromethyl)pyridin-2-yl]oxy}quinolin-2-yl)methanone], 2.4 µM.
Still for that read-out and setting: the same measure for `CS(=O)(=O)C1CN(C(=O)c2ccc3cc(Oc4ccc(C(F)(F)F)nc4)ccc3n2)C1` [Example 534, [3-(methylsulfonyl)azetidin-1-yl](6-{[6-(trifluoromethyl)pyridin-3-yl]oxy}quinolin-2-yl)methanone]: 1.97 µM; for `O=C(NC1CCS(=O)(=O)CC1)c1ccc2cc(Oc3ccc(C(F)(F)F)nc3)ccc2n1` [Example 535, N-(1,1-dioxidotetrahydro-2H-thiopyran-4-yl)-6-{[6-(trifluoromethyl)pyridin-3-yl]oxy}quinoline-2-carboxamide]: more than 20 µM.
On the same count and under the same terms, the same measure for `O=C(NC1COC1)c1ccc2cc(Oc3ccc(C(F)(F)F)nc3)ccc2n1` [Example 536, N-(oxetan-3-yl)-6-{[6-(trifluoromethyl)pyridin-3-yl]oxy}quinoline-2-carboxamide]: 1.15 µM; for `O=C(N[C@H]1CS(=O)(=O)C[C@H]1O)c1ccc2cc(Oc3ccc(C(F)(F)F)nc3)ccc2n1` [Example 537, N-[(3R,4S)-4-hydroxy-1,1-dioxidotetrahydrothiophen-3-yl]-6-{[6-(trifluoromethyl)pyridin-3-yl]oxy}quinoline-2-carboxamide]: 2.71 µM.
Regarding `O=C(N[C@@H]1CS(=O)(=O)C[C@H]1O)c1ccc2cc(Oc3ccc(C(F)(F)F)nc3)ccc2n1` [Example 538, N-[(3S,4S)-4-hydroxy-1,1-dioxidotetrahydrothiophen-3-yl]-6-{[6-(trifluoromethyl)pyridin-3-yl]oxy}quinoline-2-carboxamide], the IC50 turned out to be 3.16 µM.
Consider `O=C(c1ccc2cc(Oc3ccc(C(F)(F)F)nc3)ccc2n1)N1CC=CC1` [Example 539, 2,5-dihydro-1H-pyrrol-1-yl(6-{[6-(trifluoromethyl)pyridin-3-yl]oxy}quinolin-2-yl)methanone], for which the IC50 was more than 20 µM.
On the same count and under the same terms, the same measure for `COC(C)(C)CNC(=O)c1ccc2cc(Oc3ccc(C(F)(F)F)cn3)ccc2n1` [Example 541, N-(2-methoxy-2-methylpropyl)-6-{[5-(trifluoromethyl)pyridin-2-yl]oxy}quinoline-2-carboxamide]: 1.19 µM; for `O=C(c1ccc2cc(Oc3ccc(C(F)(F)F)nc3)ccc2n1)N1CCN[C@@H](CO)C1` [Example 544, [(3R)-3-(hydroxymethyl)piperazin-1-yl](6-{[6-(trifluoromethyl)pyridin-3-yl]oxy}quinolin-2-yl)methanone]: 3.45 µM.
For `O=C(c1ccc2cc(Oc3ccc(C(F)(F)F)nc3)ccc2n1)N1CCN[C@H](CO)C1` [Example 545, [(3S)-3-(hydroxymethyl)piperazin-1-yl](6-{[6-(trifluoromethyl)pyridin-3-yl]oxy}quinolin-2-yl)methanone], the IC50 turned out to be 3.7 µM.
On to `O=C(c1ccc2cc(Oc3ccc(C(F)(F)F)nc3)ccc2n1)N1CC[C@@H](F)C1` [Example 548, [(3R)-3-fluoropyrrolidin-1-yl](6-{[6-(trifluoromethyl)pyridin-3-yl]oxy}quinolin-2-yl)methanone], for which the IC50 amounted to 4.05 µM.
On the same count and under the same terms, under `C[C@H]1CN(C(=O)c2ccc3cc(Oc4ccc(C(F)(F)F)nc4)ccc3n2)CCN1` [Example 549, [(3S)-3-methylpiperazin-1-yl](6-{[6-(trifluoromethyl)pyridin-3-yl]oxy}quinolin-2-yl)methanone] stands 2.49 µM.
On the same count and under the same terms, the same measure for `O=C(c1ccc2cc(Oc3ccc(C(F)(F)F)nc3)ccc2n1)N1CC[C@H](F)C1` [Example 550, [(3S)-3-fluoropyrrolidin-1-yl](6-{[6-(trifluoromethyl)pyridin-3-yl]oxy}quinolin-2-yl)methanone]: 10.7 µM; for `CC1CN(C(=O)c2ccc3cc(Oc4ccc(C(F)(F)F)cn4)ccc3n2)CC(C)N1` (stereo not drawn) [Example 552, (3,5-dimethylpiperazin-1-yl)(6-{[5-(trifluoromethyl)pyridin-2-yl]oxy}quinolin-2-yl)methanone]: 0.615 µM.
`O=C(c1ccc2cc(Oc3ccc(C(F)(F)F)nc3)ccc2n1)N1CC(N2CCOCC2)C1` [Example 554, [3-(morpholin-4-yl)azetidin-1-yl](6-{[6-(trifluoromethyl)pyridin-3-yl]oxy}quinolin-2-yl)methanone]: the IC50 turned out to be 14.1 µM.

Still in this experiment, the particulars now being: read-out: FRET-Membrane Potential Nav1.7 IC50.
In the case of `CN(CC(=O)NC1CC1)C(=O)c1ccc2cc(Oc3ccc(C(F)(F)F)nc3)ccc2n1` [Example 522, N-[2-(cyclopropylamino)-2-oxoethyl]-N-methyl-6-{[6-(trifluoromethyl)pyridin-3-yl]oxy}quinoline-2-carboxamide], the IC50 amounted to 10.7 µM.
On to `CNC(=O)c1ccc2cc(Oc3ccc(C(F)(F)F)cn3)ccc2n1` [Example 527, N-methyl-6-{[5-(trifluoromethyl)pyridin-2-yl]oxy}quinoline-2-carboxamide], for which the IC50 was 5.91 µM.
Still for that read-out and setting: the same measure for `O=C(c1ccc2cc(Oc3ccc(C(F)(F)F)cn3)ccc2n1)N1CCC(N2CC(F)(F)C2)CC1` [Example 540, [4-(3,3-difluoroazetidin-1-yl)piperidin-1-yl](6-{[5-(trifluoromethyl)pyridin-2-yl]oxy}quinolin-2-yl)methanone]: 4.03 µM; for `O=C(c1ccc2cc(Oc3ccc(C(F)F)cn3)ccc2n1)N1CCN2CC(F)(F)C[C@H]2C1` [Example 542, [(8aS)-7,7-difluorohexahydropyrrolo[1,2-a]pyrazin-2(1H)-yl](6-{[5-(difluoromethyl)pyridin-2-yl]oxy}quinolin-2-yl)methanone]: 14.5 µM.
For `CC[C@@H]1CN(C(=O)c2ccc3cc(Oc4ccc(C(F)(F)F)nc4)ccc3n2)CCN1` [Example 543, [(3R)-3-ethylpiperazin-1-yl](6-{[6-(trifluoromethyl)pyridin-3-yl]oxy}quinolin-2-yl)methanone], the 50% inhibitory concentration (IC50) was 0.398 µM.
Take `O=C(NCCOC(F)(F)F)c1ccc2cc(Oc3ccc(C(F)(F)F)cn3)ccc2n1` [Example 547, N-[2-(trifluoromethoxy)ethyl]-6-{[5-(trifluoromethyl)pyridin-2-yl]oxy}quinoline-2-carboxamide]: the IC50 was 3.29 µM.
Same read-out and setting: the same measure for `O=C(NCC(O)C(F)(F)F)c1ccc2cc(Oc3ccc(C(F)(F)F)nc3)ccc2n1` (stereo not drawn) [Example 551, N-(3,3,3-trifluoro-2-hydroxypropyl)-6-{[6-(trifluoromethyl)pyridin-3-yl]oxy}quinoline-2-carboxamide]: 2.77 µM.
For `CC[C@H]1CN(C(=O)c2ccc3cc(Oc4ccc(C(F)(F)F)nc4)ccc3n2)CCN1` [Example 553, [(3S)-3-ethylpiperazin-1-yl](6-{[6-(trifluoromethyl)pyridin-3-yl]oxy}quinolin-2-yl)methanone], the IC50 came out at 0.949 µM.
